Proliferation of myoblasts data for 1 molecule are collected here from patent US20140349396A1, “Compositions and Methods Relating to Clonal Progenitor Cells” (priority 2011, published 2014).

The test has as its system myoblasts. In words: Culture of hES-derived clonal myoblasts with or without the TGFβ inhibitor. Format: cell-based, human. The conditions noted are these: removal of SB431542 together with switch from Matrigel to gelatin substrate (FIG. 11). The source says:
FIG. 11 is a photomicrograph showing myoblasts grown on Matrigel® in the presence of a TGFβ inhibitor (SB431542)(top) and myoblasts switched to gelatin without the TGFβ inhibitor.

As for `NC(=O)c1ccc(-c2nc(-c3ccc4c(c3)OCO4)c(-c3ccccn3)[nH]2)cc1` [SB431542], the proliferation of myoblasts result was “increased proliferation”.
